Paper PMC3371172 (Chemical biology & drug design, 2012)
Non-standard residues stand in square brackets, D forms with d. Residues, ends and D or L forms follow the SMILES beside them. No end group written: not given here.

What was measured:
[1] = system: HUVEC; settings: 20 µM; cited from earlier work
[2] = system: HUVEC; settings: 20 µM; cited from earlier work; remark: listed apart in the source
[3] = system: HUVEC; format: cell-based, human

Compound | inhibition of HUVEC proliferation [1] | inhibition of HUVEC migration [2] | IC50 [3]
LRRFSTMPFMFCNINNVCNF [SP2000] | 70% | 60% | –
CC[C@H](C)[C@H](NC(=O)[C@H](CC(N)=O)NC(=O)[C@@H](NC(=O)[C@H](Cc1ccccc1)NC(=O)[C@@H](C)NC(=O)[C@H](Cc1ccccc1)NC(=O)[C@@H]1CCCN1C(=O)[C@H](CCSC)NC(=O)[C@@H](NC(=O)[C@H](CO)NC(=O)[C@H](Cc1ccccc1)NC(=O)[C@H](CCCNC(=N)N)NC(=O)[C@H](CCCNC(=N)N)NC(=O)[C@@H](N)CC(C)C)[C@@H](C)O)[C@@H](C)CC)C(=O)N[C@@H](CC(N)=O)C(=O)N[C@@H](CC(N)=O)C(=O)N[C@H](C(=O)N[C@H](C(=O)N[C@@H](CC(N)=O)C(=O)N[C@@H](Cc1ccccc1)C(N)=O)[C@@H](C)CC)C(C)C [SP2034] (H-LRRFSTMPF[dA]FININNVINF-NH2) | – | – | 0.54 ± 0.19 µM
LRRFSTMPFMFININNVINF-NH2 [SP2024] | – | – | 7.45 ± 5.7 µM
